According to PMC6632053, “Incorporation of Putative Helix-Breaking Amino Acids in the Design of Novel Stapled Peptides: Exploring Biophysical and Cellular Permeability Properties” (Molecules, 2019):
Where two headings read alike, the source gives them in different places. Bridge positions count the residues as written; N and C are the ends. Square brackets hold non-standard residues; d marks the D form. Peptide text beside a SMILES is read from it. Lys(N3) = [N-]=[N+]=NCCCC[C@H](N)C(=O)O; R8 = C=CCCCCCC[C@@](C)(N)C(=O)O; Cba = N[C@@H](CC1CCC1)C(=O)O; S5 = C=CCCC[C@](C)(N)C(=O)O; Aib = CC(C)(N)C(=O)O; βAla = NCCC(=O)O

Legend:
[1] = Circular dichroism (CD) α-helicity; assay type: physicochemical; settings: for Helicity (%): Table 2, CD of free peptide, 25 °C, 1 mM Hepes pH 7.4, 5% methanol
Procedure: A total of 5 µL of the 10 mM stock peptide was mixed with 45 µL of 100% methanol, and dried for 2 h in the SpeedVac concentrator (Thermo Scientific). The dried peptide was reconstituted in a buffer (1 mM Hepes pH 7.4 and 5% methanol) to a concentration of 1 mM. The peptide sample was placed in a quartz cuvette with a path length of 0.2 cm. The peptide concentration was determined by the absorbance of the peptide at […]. The CD spectrum was recorded from 300 to 190 nm using the Chirascan-plus qCD machine (Applied Photophysics, Surrey, UK), at 25 °C. All experiments were done in duplicates. The CD spectrum was converted to mean residue ellipticity, before deconvolution and estimation of the secondary structure components of the peptide using the CDNN software (distributed by Applied Photophysics).

[2] = test system: p53 responsive β-lactamase reporter in HCT116 cells; assay: p53 beta-lactamase reporter gene cellular functional assay; assay type: cell-based; settings: p53 reporter assay, HCT116, read-out: Cellular (µM), cellular activity (EC50)
Procedure: HCT116 cells were stably transfected with a p53 responsive β-lactamase reporter and were seeded into a 384-well plate at a density of 8000 cells per well. Cells were maintained in McCoy’s 5A Medium with 10% fetal bovine serum (FBS), Blasticidin, and Penicillin/Streptomycin. The cells were incubated overnight, followed by removal of cell growth media and replacement with Opti-MEM either containing 0% FBS or 10% FBS. […] The final working concentration of DMSO was 0.5%. β-lactamase activity was detected using the ToxBLAzer Dual Screen (Invitrogen), as per the manufacturer’s instructions. Measurements were made using the Envision multiplate reader (Perkin–Elmer).

human Mdm2 1–125 = target: T1, human Mdm2 1–125 (Homo sapiens, UniProt Q00987); assay: Mdm2 binding assay (competitive fluorescence anisotropy/polarization); settings: competitive fluorescence polarization, read-out: Mdm2 (nM), Mdm2 binding (Kd)
T1 construct: GST (N); His6 (internal); TEV cleavage site ENLYFQG (internal); made in house; host or cells: Escherichia coli BL21 (DE3) Rosetta T1R
T1 sequence (Q00987 with tags, fused parts or gaps): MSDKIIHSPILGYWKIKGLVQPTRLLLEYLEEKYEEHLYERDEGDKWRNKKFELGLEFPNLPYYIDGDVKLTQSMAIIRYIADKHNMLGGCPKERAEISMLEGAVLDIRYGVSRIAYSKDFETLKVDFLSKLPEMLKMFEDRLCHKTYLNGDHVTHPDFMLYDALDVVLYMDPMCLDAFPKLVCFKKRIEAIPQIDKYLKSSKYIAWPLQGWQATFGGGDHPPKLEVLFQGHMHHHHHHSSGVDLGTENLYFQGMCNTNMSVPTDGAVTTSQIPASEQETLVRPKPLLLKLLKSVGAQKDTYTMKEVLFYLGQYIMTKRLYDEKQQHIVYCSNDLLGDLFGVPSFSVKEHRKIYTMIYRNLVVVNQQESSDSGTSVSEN
Procedure: The TEV (tobacco etch virus) cleavage site was changed from ENLYFQS to ENLYFQG to give a fusion protein with the following sequence:
Titrations were carried out with the concentration of Mdm2 held constant at 250 nM and the labeled peptide at 50 nM. The competing molecules were then titrated against the complex of the FAM-labeled peptide and protein. Apparent Kd values were determined by fitting the experimental data to the equations shown below:(2) r=r0+(rb−r0)×2(d^2−3e)cos(θ/3)−9/3Kd1+2(d^2−3e)cos(θ/3)−dd=Kd1+Kd2+[L]st+[L]t−[P]te=([L]t−[P]t)Kd1+([L]st−[P]t)Kd2+Kd1Kd2f=−Kd1Kd2[P]tθ=arcos[−2d^3+9de−27f/2(d^2−3e)^3] where [L]st and [L]t denote labeled ligand and total unlabeled ligand input concentrations, respectively. Kd2 is the dissociation constant of the interaction between the unlabeled ligand and the protein. In all competition experiments, it was assumed that [P]t > [L]st, otherwise considerable amounts of free labeled ligand would always be present and would interfere with measurements. Kd1 is the apparent Kd for the labeled peptide used and was experimentally determined as described in the previous paragraph. The FAM-labeled peptide was dissolved in dimethyl sulfoxide (DMSO) at 1 mM and diluted into the experimental buffer. Readings were carried out with an Envision Multilabel Reader (PerkinElmer). Experiments were carried out in PBS (2.7 mM KCl, 137mM NaCl, 10 mM Na2HPO4, and 2 mM KH2PO4 (pH 7.4)) and 0.1% Tween 20 buffer. All titrations were carried out in triplicate. Curve-fitting was carried out using Prism 4.0 (GraphPad). […] Negative control titrations of the ligands under investigation were also carried out with the fluorescently labeled peptide (in the absence of Mdm2) to ensure no interactions were occurring between the ligands and the FAM-labeled peptide.

| Structure (SMILES) | Helicity (%) [1] | EC50 ([2]; Table 2) | Kd (human Mdm2 1–125; Table 2) | α-helicity by CD [1] | Kd (human Mdm2 1–125; Table 1) | EC50 ([2]; Table 1) |
| --- | --- | --- | --- | --- | --- | --- |
| CC(=O)N[C@@H](CCCCN=[N+]=[N-])C(=O)NCCC(=O)N[C@@H](CC(C)C)C(=O)N[C@H](C(=O)N[C@@H](Cc1ccccc1)C(=O)N[C@]1(C)CCCCCCC=CCCC[C@@](C)(C(=O)N[C@@H](CO)C(=O)N[C@@H](C)C(=O)N[C@@H](C)C(N)=O)NC(=O)[C@H](CC2CCC2)NC(=O)[C@H](CCC(N)=O)NC(=O)C(C)(C)NC(=O)[C@H](Cc2c[nH]c3ccccc23)NC(=O)[C@H](Cc2ccc(O)cc2)NC(=O)[C@H](CCC(=O)O)NC1=O)[C@@H](C)O [A8(Aib)] | 37.5% | 1.5 µM | – | – | – | – |
| CC(=O)N[C@@H](CCCCN=[N+]=[N-])C(=O)NCCC(=O)N[C@@H](CC(C)C)C(=O)N[C@H](C(=O)N[C@@H](Cc1ccccc1)C(=O)N[C@]1(C)CCCCCCC=CCCC[C@@](C)(C(=O)N[C@@H](CO)C(=O)N[C@@H](C)C(=O)N[C@@H](C)C(N)=O)NC(=O)[C@H](CC2CCC2)NC(=O)[C@H](CCC(N)=O)NC(=O)[C@H](C)N(C)C(=O)[C@H](Cc2c[nH]c3ccccc23)NC(=O)[C@H](Cc2ccc(O)cc2)NC(=O)[C@H](CCC(=O)O)NC1=O)[C@@H](C)O [A8(N-methyl L-Ala)] | 16.9% | > 50 µM | 671 nM | < 30% | – | – |
| CC(=O)N[C@@H](CCCCN=[N+]=[N-])C(=O)NCCC(=O)N[C@@H](CC(C)C)C(=O)N[C@H](C(=O)N[C@@H](Cc1ccccc1)C(=O)N[C@]1(C)CCCCCCC=CCCC[C@@](C)(C(=O)N[C@@H](C)C(=O)NC(C)(C)C(=O)N[C@@H](C)C(N)=O)NC(=O)[C@H](CC2CCC2)NC(=O)[C@H](CCC(N)=O)NC(=O)[C@H](C)NC(=O)[C@H](Cc2c[nH]c3ccccc23)NC(=O)[C@H](Cc2ccc(O)cc2)NC(=O)[C@H](CCC(=O)O)NC1=O)[C@@H](C)O [A13(Aib)] (Ac-[Lys(N3)][βAla]LTF[R8]EYWAQ[Cba][S5]A[Aib]A-NH2; staple 6-13) | 34.4% | 0.59 µM | – | – | – | – |
| CC(=O)N[C@@H](CCCCN=[N+]=[N-])C(=O)NCCC(=O)N[C@@H](CC(C)C)C(=O)N[C@H](C(=O)N[C@@H](Cc1ccccc1)C(=O)N[C@]1(C)CCCCCCC=CCCC[C@@](C)(C(=O)N[C@@H](CO)C(=O)N[C@@H](C)C(=O)N(C)[C@@H](C)C(N)=O)NC(=O)[C@H](CC2CCC2)NC(=O)[C@H](CCC(N)=O)NC(=O)[C@H](C)NC(=O)[C@H](Cc2c[nH]c3ccccc23)NC(=O)[C@H](Cc2ccc(O)cc2)NC(=O)[C@H](CCC(=O)O)NC1=O)[C@@H](C)O [A14(N-methyl L-Ala)] | 47.5% | 0.71 µM | – | – | – | – |
| CC(=O)N[C@@H](CC(C)C)C(=O)N[C@H](C(=O)N[C@@H](Cc1ccccc1)C(=O)N[C@]1(C)CCCCCCC=CCCC[C@@](C)(C(=O)N[C@@H](CO)C(=O)N[C@@H](C)C(=O)N[C@@H](C)C(N)=O)NC(=O)[C@@H](CC2CCC2)NC(=O)[C@H](CC(C)C)NC(=O)[C@H](CCC(N)=O)NC(=O)[C@H](Cc2c[nH]c3ccccc23)NC(=O)[C@H](Cc2ccc(O)cc2)NC(=O)[C@H](CCC(=O)O)NC1=O)[C@@H](C)O [Cba10(D-Cba)] | – | – | – | – | 1650 nM | 8.1 µM |
| CC(=O)N[C@@H](CCCCN=[N+]=[N-])C(=O)NCCC(=O)NC(C)(C)C(=O)N[C@H](C(=O)N[C@@H](Cc1ccccc1)C(=O)N[C@]1(C)CCCCCCC=CCCC[C@@](C)(C(=O)N[C@@H](CO)C(=O)N[C@@H](C)C(=O)N[C@@H](C)C(N)=O)NC(=O)[C@H](CC2CCC2)NC(=O)[C@H](CCC(N)=O)NC(=O)[C@H](C)NC(=O)[C@H](Cc2c[nH]c3ccccc23)NC(=O)[C@H](Cc2ccc(O)cc2)NC(=O)[C@H](CCC(=O)O)NC1=O)[C@@H](C)O [L1(Aib)] | 42.7% | 0.49 µM | – | – | – | – |
| CC(=O)N[C@@H](CCCCN=[N+]=[N-])C(=O)NCCC(=O)N(C)[C@@H](C)C(=O)N[C@H](C(=O)N[C@@H](Cc1ccccc1)C(=O)N[C@]1(C)CCCCCCC=CCCC[C@@](C)(C(=O)N[C@@H](CO)C(=O)N[C@@H](C)C(=O)N[C@@H](C)C(N)=O)NC(=O)[C@H](CC2CCC2)NC(=O)[C@H](CCC(N)=O)NC(=O)[C@H](C)NC(=O)[C@H](Cc2c[nH]c3ccccc23)NC(=O)[C@H](Cc2ccc(O)cc2)NC(=O)[C@H](CCC(=O)O)NC1=O)[C@@H](C)O [L1(N-methyl L-Ala)] | 47.2% | 1.49 µM | – | – | – | – |
| CC(=O)N[C@@H](CCCCN=[N+]=[N-])C(=O)NCCC(=O)N(C)[C@@H](CC(C)C)C(=O)N[C@H](C(=O)N[C@@H](Cc1ccccc1)C(=O)N[C@]1(C)CCCCCCC=CCCC[C@@](C)(C(=O)N[C@@H](CO)C(=O)N[C@@H](C)C(=O)N[C@@H](C)C(N)=O)NC(=O)[C@H](CC2CCC2)NC(=O)[C@H](CCC(N)=O)NC(=O)[C@H](C)NC(=O)[C@H](Cc2c[nH]c3ccccc23)NC(=O)[C@H](Cc2ccc(O)cc2)NC(=O)[C@H](CCC(=O)O)NC1=O)[C@@H](C)O [L1(N-methyl L-Leu)] | 32.6% | 0.46 µM | – | – | – | – |
| CC(=O)N[C@@H](CC(C)C)C(=O)N[C@H](C(=O)N[C@@H](Cc1ccccc1)C(=O)N[C@]1(C)CCCCCCC=CCCC[C@@](C)(C(=O)N[C@@H](CO)C(=O)N[C@@H](C)C(=O)N[C@@H](C)C(N)=O)NC(=O)[C@H](CC2CCC2)NC(=O)[C@H](CC(C)C)NC(=O)[C@H](CCC(N)=O)NC(=O)[C@H](C)NC(=O)[C@H](Cc2ccc(O)cc2)NC(=O)[C@H](CCC(=O)O)NC1=O)[C@@H](C)O [Peptide W7A] (Ac-LTF[R8]EYAQL[Cba][S5]SAA-NH2; staple 4-11) | – | – | – | – | 5090 nM | 8.8 µM |
| CC(=O)N[C@@H](CCCCN=[N+]=[N-])C(=O)NCCC(=O)N[C@@H](CC(C)C)C(=O)N[C@H](C(=O)N[C@@H](Cc1ccccc1)C(=O)N[C@]1(C)CCCCCCC=CCCC[C@@](C)(C(=O)N[C@@H](CO)C(=O)N[C@@H](C)C(=O)N[C@@H](C)C(N)=O)NC(=O)[C@H](CC2CCC2)NC(=O)C(C)(C)NC(=O)[C@H](C)NC(=O)[C@H](Cc2c[nH]c3ccccc23)NC(=O)[C@H](Cc2ccc(O)cc2)NC(=O)[C@H](CCC(=O)O)NC1=O)[C@@H](C)O [Q9(Aib)] | 28% | 0.25 µM | – | – | – | – |
| CC(=O)N[C@@H](CCCCN=[N+]=[N-])C(=O)NCCC(=O)N[C@@H](CC(C)C)C(=O)N[C@H](C(=O)N[C@@H](Cc1ccccc1)C(=O)N[C@]1(C)CCCCCCC=CCCC[C@@](C)(C(=O)NC(C)(C)C(=O)N[C@@H](C)C(=O)N[C@@H](C)C(N)=O)NC(=O)[C@H](CC2CCC2)NC(=O)[C@H](CCC(N)=O)NC(=O)[C@H](C)NC(=O)[C@H](Cc2c[nH]c3ccccc23)NC(=O)[C@H](Cc2ccc(O)cc2)NC(=O)[C@H](CCC(=O)O)NC1=O)[C@@H](C)O [S12(Aib)] | 37.3% | 0.25 µM | – | – | – | – |
| CC(=O)N[C@@H](CCCCN=[N+]=[N-])C(=O)NCCC(=O)N[C@@H](CC(C)C)C(=O)NC(C)(C)C(=O)N[C@@H](Cc1ccccc1)C(=O)N[C@]1(C)CCCCCCC=CCCC[C@@](C)(C(=O)N[C@@H](CO)C(=O)N[C@@H](C)C(=O)N[C@@H](C)C(N)=O)NC(=O)[C@H](CC2CCC2)NC(=O)[C@H](CCC(N)=O)NC(=O)[C@H](C)NC(=O)[C@H](Cc2c[nH]c3ccccc23)NC(=O)[C@H](Cc2ccc(O)cc2)NC(=O)[C@H](CCC(=O)O)NC1=O [T2(Aib)] | 38.3% | 2.9 µM | – | – | – | – |
| CC(=O)N[C@@H](CCCCN=[N+]=[N-])C(=O)NCCC(=O)N[C@@H](CC(C)C)C(=O)N(C)[C@H](C(=O)N[C@@H](Cc1ccccc1)C(=O)N[C@]1(C)CCCCCCC=CCCC[C@@](C)(C(=O)N[C@@H](CO)C(=O)N[C@@H](C)C(=O)N[C@@H](C)C(N)=O)NC(=O)[C@H](CC2CCC2)NC(=O)[C@H](CCC(N)=O)NC(=O)[C@H](C)NC(=O)[C@H](Cc2c[nH]c3ccccc23)NC(=O)[C@H](Cc2ccc(O)cc2)NC(=O)[C@H](CCC(=O)O)NC1=O)[C@@H](C)O [T2(N-methyl L-Thr)] | 38.2% | 7.7 µM | – | – | – | – |
